Measured values as given in publication PMC2896556 (Biochemistry, 2010).
Where two headings read alike, the source gives them in different places.

Key:
p66 = p66 (Human immunodeficiency virus type 1 group M subtype B, UniProt P04585); parameters: species or system HIV-1; conditions: 3 μM p66, 25 μM NNRTI, 1 wk
RT subunit interactions = conditions: cited from earlier work
RT dimerization [1] = conditions: yeast-two hybrid; cited from earlier work
RT dimerization [2] = conditions: urea denaturation; cited from earlier work
p66/p66 = conditions: cited from earlier work
p51/p51 = conditions: cited from earlier work

Compound | effect on RT subunit interactions (RT subunit interactions) | further results
Cc1ccnc2c1NC(=O)c1cccnc1N2C1CC1 [nevirapine] | enhance subunit interactions | effect on p66 dimerization (p66): enhance dimerization; effect on RT dimerization (RT dimerization [1]): small enhancement of dimerization; effect on RT dimerization (RT dimerization [2]): no effect
CC(C)Nc1cccnc1N1CCN(C(=O)c2cc3cc(NS(C)(=O)=O)ccc3[nH]2)CC1 [delavirdine] | little or no effect | 
O=C1Nc2ccc(Cl)cc2[C@@](C#CC2CC2)(C(F)(F)F)O1 [efavirenz] | enhance subunit interactions | enhancement of dimer formation (p66/p66): 50 fold; enhancement of dimer formation (p51/p51): 600 fold
CC(C)(C)c1ccc(C(=O)NN=Cc2ccccc2O)cc1 [BBSH, (4-tert-butylbenzoyl)-2-hydroxy-1-salicylyl hydrazone] | weaken subunit interactions | 
CCn1c(=O)c(C)cn([C@@H]2O[C@H](CO[Si](C)(C)C(C)(C)C)C3(OS(=O)(=O)C=C3N)[C@H]2O[Si](C)(C)C(C)(C)C)c1=O (stereo partly drawn) [TSAOe^3T, 1-(spiro{4”-amino-2”,2”-dioxo-1”,2”-oxathiole-5”,3′-[2′,5′-bis-O-(tert-butyldimethylsilyl)-β-D-ribofuranosyl]})-3-ethylthymine] | weaken subunit interactions | 
CC(C)(C)c1ccc(C(=O)NN=Cc2c(O)ccc3ccccc23)cc1 [BBNH, N-(4-tert-butylbenzoyl)-2-hydroxy-1-naphthaldehyde hydrazone] | weaken subunit interactions | 
